# Results: US8586505B2 (SDS Biotech K. K., priority 2009, dated 2013)
# What was measured:
# Assay type in all cases: in vivo
# Phytophthora infestans = test: whole plant or invertebrate; details: in Solanum lycopersicum, 96 h, read-out: Determination of control effect (preventive value)
# [1] = system: Pseudoperonospora cubensis; test: Test of examining control effect on Pseudoperonospora cubensis (potted cucumber plants); details: 96 h, 10% wettable powder adjusted to 125 ppm, 15 ml/pot sprayed on potted cucumber plants one day before spray inoculation, assessed after 1 day wet chamber and 3 days greenhouse, read-out: Determination of control effect (preventive value) on Pseudoperonospora cubensis
# Summary of the method: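 Cucumber plants (Sagamihanjiro, 2.5-leaf stage) sprayed with 125 ppm compound solution from 10% wettable powder, 15 ml/pot. One day later, spray-inoculated with P. cubensis conidia (1.0×10^4 cells/ml), kept 1 day at 21° C wet, then 3 days in greenhouse. Preventive value derived from lesion area relative to untreated plants.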
# Sphaerotheca fuliginea = test: Test of examining control effect on Sphaerotheca fuliginea (potted cucumber plants); details: Podosphaera fuliginea, 336 h; 10% wettable powder adjusted to 125 ppm, 15 ml/pot sprayed on potted cucumber plants one day before spray inoculation; assessed after 14 days in greenhouse; read-out: Determination of control effect (preventive value) on Sphaerotheca fuliginea
# Summary of the method: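 Cucumber plants (Sagamihanjiro, 2nd leaf stage) sprayed with 125 ppm compound (from 10% wettable powder), inoculated one day later with S. fuliginea conidia (1.0×10^5 cells/ml); lesion area scored after 14 days in greenhouse. Preventive value vs untreated; ≥60% high, <60% low control.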
SMILES,pest or weed control at 125 ppm (Phytophthora infestans) [%],pest or weed control at 125 µg/mL [1] [%],pest or weed control at 125 µg/mL (Sphaerotheca fuliginea) [%]
Cc1ccsc1C#CCCNc1ncnc2ccccc12 [compound 208],60 to 100,60 to 100,60 to 100
C(#Cc1cscn1)CCNc1ncnc2ccccc12 [compound 210],60 to 100,60 to 100,60 to 100
Cc1nc(C#CCCNc2ncnc3ccccc23)cs1 [compound 211],60 to 100,60 to 100,60 to 100
COc1nc(C#CCCNc2ncnc3ccccc23)cs1 [compound 212],60 to 100,60 to 100,60 to 100
COc1ccccc1Oc1nc(C#CCCNc2ncnc3ccccc23)cs1 [compound 215],60 to 100,60 to 100,60 to 100
N#Cc1ccccc1Oc1nc(C#CCCNc2ncnc3ccccc23)cs1 [compound 221],0 to 60,60 to 100,60 to 100
Fc1ccccc1Oc1nc(C#CCCNc2ncnc3ccccc23)cs1 [compound 224],60 to 100,60 to 100,60 to 100
Fc1ccc(Oc2nc(C#CCCNc3ncnc4ccccc34)cs2)cc1 [compound 226],60 to 100,60 to 100,60 to 100
C(#Cc1csc(Oc2ccccc2)n1)CCNc1ncnc2ccccc12 [compound 227],60 to 100,60 to 100,60 to 100
C(#Cc1csc(N2CCCCC2)n1)CCNc1ncnc2ccccc12 [compound 228],0 to 60,60 to 100,0 to 60
CC(CC#Cc1ccccc1)Nc1ncnc2sccc12 (stereo not drawn) [compound 229],0 to 60,60 to 100,60 to 100
CC(CC#Cc1ccc(F)cc1)Nc1ncnc2sccc12 (stereo not drawn) [compound 230],60 to 100,60 to 100,60 to 100
CC(CC#Cc1cccc(C(F)(F)F)c1)Nc1ncnc2sccc12 (stereo not drawn) [compound 234],0 to 60,60 to 100,60 to 100
COc1ccccc1C#CCC(C)Nc1ncnc2sccc12 (stereo not drawn) [compound 236],0 to 60,60 to 100,60 to 100
CC(CC#Cc1ccccc1S(C)(=O)=O)Nc1ncnc2sccc12 (stereo not drawn) [compound 237],60 to 100,60 to 100,60 to 100
CC(CC#Cc1ccccc1OC(C)C)Nc1ncnc2sccc12 (stereo not drawn) [compound 242],0 to 60,60 to 100,60 to 100
CC(CC#Cc1ccccc1CO)Nc1ncnc2sccc12 (stereo not drawn) [compound 243],60 to 100,60 to 100,60 to 100
CC(CC#Cc1ccc(F)cc1CO)Nc1ncnc2sccc12 (stereo not drawn) [compound 244],60 to 100,60 to 100,60 to 100
Cc1cc(Cl)ccc1C#CCC(C)Nc1ncnc2sccc12 (stereo not drawn) [compound 250],60 to 100,60 to 100,60 to 100
CC(CC#Cc1c(Cl)cccc1Cl)Nc1ncnc2sccc12 (stereo not drawn) [compound 251],0 to 60,60 to 100,60 to 100

SMILES,pest or weed control at 125 ppm (Phytophthora infestans) [%],pest or weed control at 125 µg/mL [1] [%],pest or weed control at 125 µg/mL (Sphaerotheca fuliginea) [%]
CC(CC#Cc1c(Cl)cccc1C(F)(F)F)Nc1ncnc2sccc12 (stereo not drawn) [compound 252],0 to 60,60 to 100,60 to 100
CC(CC#Cc1ccc(Cl)c(C(F)(F)F)c1)Nc1ncnc2sccc12 (stereo not drawn) [compound 254],0 to 60,60 to 100,0 to 60
CC(CC#Cc1ccc(S(C)(=O)=O)cc1Cl)Nc1ncnc2sccc12 (stereo not drawn) [compound 256],60 to 100,60 to 100,60 to 100
CC(CC#Cc1ccc(C#N)cc1C(F)(F)F)Nc1ncnc2sccc12 (stereo not drawn) [compound 260],60 to 100,60 to 100,60 to 100
CC(CC#Cc1ncccc1C(F)(F)F)Nc1ncnc2sccc12 (stereo not drawn) [compound 264],60 to 100,60 to 100,60 to 100
CC(CC#Cc1nccs1)Nc1ncnc2sccc12 (stereo not drawn) [compound 265],60 to 100,60 to 100,60 to 100
Cc1nc(C#CCC(C)Nc2ncnc3sccc23)cs1 (stereo not drawn) [compound 266],60 to 100,60 to 100,60 to 100
CCCC(CC#Cc1ccccc1)Nc1ncnc2sccc12 (stereo not drawn) [compound 268],0 to 60,60 to 100,60 to 100
CC(CC#Cc1ccccc1)Nc1ncnc2ccccc12 (stereo not drawn) [compound 270],0 to 60,60 to 100,60 to 100
CC(CC#Cc1ccc(F)cc1)Nc1ncnc2ccccc12 (stereo not drawn) [compound 271],60 to 100,60 to 100,60 to 100
CC(CC#Cc1ccccc1Cl)Nc1ncnc2ccccc12 (stereo not drawn) [compound 272],60 to 100,60 to 100,60 to 100
CC(CC#Cc1ccc(Cl)cc1)Nc1ncnc2ccccc12 (stereo not drawn) [compound 273],60 to 100,60 to 100,60 to 100
CC(CC#Cc1ccccc1C(F)(F)F)Nc1ncnc2ccccc12 (stereo not drawn) [compound 274],60 to 100,60 to 100,60 to 100
CC(CC#Cc1ccc(C(F)(F)F)cc1)Nc1ncnc2ccccc12 (stereo not drawn) [compound 275],60 to 100,60 to 100,60 to 100
COc1ccccc1C#CCC(C)Nc1ncnc2ccccc12 (stereo not drawn) [compound 276],60 to 100,60 to 100,0 to 60
COCc1ccccc1C#CCC(C)Nc1ncnc2ccccc12 (stereo not drawn) [compound 278],60 to 100,60 to 100,60 to 100
Cc1ccc(C#CCC(C)Nc2ncnc3ccccc23)cc1 (stereo not drawn) [compound 279],60 to 100,60 to 100,60 to 100
CC(CC#Cc1ccc(C(F)(F)F)cc1C(F)(F)F)Nc1ncnc2ccccc12 (stereo not drawn) [compound 280],0 to 60,60 to 100,0 to 60
CC(CC#Cc1ccc(C(F)(C(F)(F)F)C(F)(F)F)cc1Cl)Nc1ncnc2ccccc12 (stereo not drawn) [compound 281],0 to 60,60 to 100,60 to 100
